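48-hour exposure; five concentrations; linearly interpolated endpoints. TGI marks complete inhibition of growth.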
Columns and labels:
Assay in all cases: NCI anticancer screen, dose series, 48 h
OVCAR-3 ovarian = tested on: OVCAR-3 ovarian
BT-549 breast = tested on: BT-549 breast
ACHN renal = tested on: ACHN renal
SK-MEL-2 melanoma = tested on: SK-MEL-2 melanoma
SN12C renal = tested on: SN12C renal
OVCAR-4 ovarian = tested on: OVCAR-4 ovarian
A498 renal = tested on: A498 renal
HL-60(TB) leukemia = tested on: HL-60(TB) leukemia
SNB-75 CNS = tested on: SNB-75 CNS
M14 melanoma = tested on: M14 melanoma
K-562 leukemia = tested on: K-562 leukemia
HCT-15 colon = tested on: HCT-15 colon
NCI-H23 lung = tested on: NCI-H23 lung
HS 578T breast = tested on: HS 578T breast
CCRF-CEM leukemia = tested on: CCRF-CEM leukemia
MDA-N = tested on: MDA-N
SF-268 CNS = tested on: SF-268 CNS
SK-OV-3 ovarian = tested on: SK-OV-3 ovarian
HCC-2998 colon = tested on: HCC-2998 colon
A549 NSCLC = tested on: A549 NSCLC
NCI-H522 lung = tested on: NCI-H522 lung
DU-145 prostate = tested on: DU-145 prostate
HCT-116 colon = tested on: HCT-116 colon
MALME-3M melanoma = tested on: MALME-3M melanoma
COLO 205 colon = tested on: COLO 205 colon
MOLT-4 leukemia = tested on: MOLT-4 leukemia
RPMI-8226 leukemia = tested on: RPMI-8226 leukemia
MDA-MB-231 breast = tested on: MDA-MB-231 breast
EKVX NSCLC = tested on: EKVX NSCLC
TK-10 renal = tested on: TK-10 renal
CAKI-1 renal = tested on: CAKI-1 renal
OVCAR-5 ovarian = tested on: OVCAR-5 ovarian
SK-MEL-28 melanoma = tested on: SK-MEL-28 melanoma
RXF 393 renal = tested on: RXF 393 renal
786-0 renal = tested on: 786-0 renal
LOX IMVI melanoma = tested on: LOX IMVI melanoma
MDA-MB-435 = tested on: MDA-MB-435
UO-31 renal = tested on: UO-31 renal
SNB-19 CNS = tested on: SNB-19 CNS
PC-3 prostate = tested on: PC-3 prostate
KM12 colon = tested on: KM12 colon
SF-539 CNS = tested on: SF-539 CNS
IGROV1 ovarian = tested on: IGROV1 ovarian
NCI-H460 lung = tested on: NCI-H460 lung
HOP-92 NSCLC = tested on: HOP-92 NSCLC
UACC-62 melanoma = tested on: UACC-62 melanoma
T-47D breast = tested on: T-47D breast
MCF7 breast = tested on: MCF7 breast
OVCAR-8 ovarian = tested on: OVCAR-8 ovarian
UACC-257 melanoma = tested on: UACC-257 melanoma
NCI-H226 lung = tested on: NCI-H226 lung
NCI/ADR-RES ovarian = tested on: NCI/ADR-RES ovarian
SW-620 colon = tested on: SW-620 colon
U251 CNS = tested on: U251 CNS
SF-295 CNS = tested on: SF-295 CNS
SR leukemia = tested on: SR leukemia
HOP-62 NSCLC = tested on: HOP-62 NSCLC
HT29 colon = tested on: HT29 colon
SK-MEL-5 melanoma = tested on: SK-MEL-5 melanoma

SMILES: Nc1ncc(N)c(NCC2(CO)CC(CCc3ccccc3)C2)n1 (configuration not stated)
- TGI (OVCAR-3 ovarian): 13.3 µM
- TGI (BT-549 breast): 23.1 µM
- TGI (ACHN renal): 24.5 µM
- TGI (SK-MEL-2 melanoma): 23 µM
- TGI (SN12C renal): 24.9 µM
- TGI (OVCAR-4 ovarian): 20.8 µM
- TGI (A498 renal): 27.4 µM
- TGI (HL-60(TB) leukemia): 0.987 µM
- TGI (SNB-75 CNS): 29.4 µM
- TGI (M14 melanoma): 24 µM
- TGI (K-562 leukemia): 12.9 µM
- TGI (HCT-15 colon): 36.5 µM
- TGI (NCI-H23 lung): 20.8 µM
- TGI (HS 578T breast): 36.1 µM
- TGI (CCRF-CEM leukemia): 4.34 µM
- TGI (MDA-N): 21.5 µM
- TGI (SF-268 CNS): > 43 µM
- TGI (SK-OV-3 ovarian): 25.4 µM
- TGI (HCC-2998 colon): 23.7 µM
- TGI (A549 NSCLC): 28.8 µM
- TGI (NCI-H522 lung): 3.58 µM
- TGI (DU-145 prostate): 24.2 µM
- TGI (HCT-116 colon): 20.1 µM
- TGI (MALME-3M melanoma): 23.7 µM
- TGI (COLO 205 colon): 16.8 µM
- TGI (MOLT-4 leukemia): 8.56 µM
- TGI (RPMI-8226 leukemia): 4.78 µM
- TGI (MDA-MB-231 breast): 14.8 µM
- TGI (EKVX NSCLC): 22.7 µM
- TGI (TK-10 renal): 25.1 µM
- TGI (CAKI-1 renal): 21.8 µM
- TGI (OVCAR-5 ovarian): 28.5 µM
- TGI (SK-MEL-28 melanoma): 27.9 µM
- TGI (RXF 393 renal): 27.8 µM
- TGI (786-0 renal): 22.5 µM
- TGI (LOX IMVI melanoma): 16.6 µM
- TGI (MDA-MB-435): 22.9 µM
- TGI (UO-31 renal): 15 µM
- TGI (SNB-19 CNS): 23.4 µM
- TGI (PC-3 prostate): 18.9 µM
- TGI (KM12 colon): 23 µM
- TGI (SF-539 CNS): 8.67 µM
- TGI (IGROV1 ovarian): 22.4 µM
- TGI (NCI-H460 lung): 30.5 µM
- TGI (HOP-92 NSCLC): 11.5 µM
- TGI (UACC-62 melanoma): 21.1 µM
- TGI (T-47D breast): 9.82 µM
- TGI (MCF7 breast): 15.9 µM
- TGI (OVCAR-8 ovarian): 23.7 µM
- TGI (UACC-257 melanoma): 22.8 µM
- TGI (NCI-H226 lung): 18.4 µM
- TGI (NCI/ADR-RES ovarian): 40.9 µM
- TGI (SW-620 colon): 23.9 µM
- TGI (U251 CNS): 19.6 µM
- TGI (SF-295 CNS): 24.5 µM
- TGI (SR leukemia): 13.2 µM
- TGI (HOP-62 NSCLC): 28.3 µM
- TGI (HT29 colon): 20.5 µM
- TGI (SK-MEL-5 melanoma): 14 µM

SMILES: CC(C)(C)OC(=O)NCC(=O)N(CCc1ccc(Cl)c(Cl)c1)CCN1CCCC1
- TGI (OVCAR-3 ovarian): 32.2 µM
- TGI (BT-549 breast): 42.1 µM
- TGI (ACHN renal): 40.8 µM
- TGI (SK-MEL-2 melanoma): 31.3 µM
- TGI (SN12C renal): 32.7 µM
- TGI (OVCAR-4 ovarian): 54.9 µM
- TGI (A498 renal): 32.8 µM
- TGI (HL-60(TB) leukemia): 30.4 µM
- TGI (SNB-75 CNS): 37.2 µM
- TGI (M14 melanoma): 28.6 µM
- TGI (K-562 leukemia): 25.1 µM
- TGI (HCT-15 colon): 37.4 µM
- TGI (NCI-H23 lung): 37.1 µM
- TGI (HS 578T breast): 46.5 µM
- TGI (CCRF-CEM leukemia): 28.4 µM
- TGI (MDA-N): 29.1 µM
- TGI (SF-268 CNS): 31.6 µM
- TGI (SK-OV-3 ovarian): 32.1 µM
- TGI (HCC-2998 colon): 16.2 µM
- TGI (A549 NSCLC): 37.7 µM
- TGI (NCI-H522 lung): 29.4 µM
- TGI (DU-145 prostate): 32.3 µM
- TGI (HCT-116 colon): 27.9 µM
- TGI (MALME-3M melanoma): 36.4 µM
- TGI (COLO 205 colon): 30 µM
- TGI (MOLT-4 leukemia): 28.5 µM
- TGI (RPMI-8226 leukemia): 23.8 µM
- TGI (MDA-MB-231 breast): 26.6 µM
- TGI (EKVX NSCLC): 48.1 µM
- TGI (TK-10 renal): 31.5 µM
- TGI (CAKI-1 renal): 36 µM
- TGI (OVCAR-5 ovarian): 38.7 µM
- TGI (SK-MEL-28 melanoma): 29.7 µM
- TGI (RXF 393 renal): 29.7 µM
- TGI (786-0 renal): 28 µM
- TGI (LOX IMVI melanoma): 29.3 µM
- TGI (MDA-MB-435): 28.4 µM
- TGI (UO-31 renal): 28.7 µM
- TGI (SNB-19 CNS): 34.4 µM
- TGI (PC-3 prostate): 30.3 µM
- TGI (KM12 colon): 32.6 µM
- TGI (SF-539 CNS): 32.8 µM
- TGI (IGROV1 ovarian): 31.5 µM
- TGI (NCI-H460 lung): 30.2 µM
- TGI (HOP-92 NSCLC): 19.4 µM
- TGI (UACC-62 melanoma): 32.2 µM
- TGI (T-47D breast): 53.5 µM
- TGI (MCF7 breast): 31.8 µM
- TGI (OVCAR-8 ovarian): 35.8 µM
- TGI (UACC-257 melanoma): 29.9 µM
- TGI (NCI-H226 lung): 32.3 µM
- TGI (NCI/ADR-RES ovarian): 36.7 µM
- TGI (SW-620 colon): 37.3 µM
- TGI (U251 CNS): 28.7 µM
- TGI (SF-295 CNS): 33.1 µM
- TGI (SR leukemia): 32.2 µM
- TGI (HOP-62 NSCLC): 27.7 µM
- TGI (HT29 colon): 23.7 µM
- TGI (SK-MEL-5 melanoma): 28.4 µM

SMILES: COC(=O)/C=C/C(=O)Nc1cc(Cl)c(Cl)cc1CC(=O)N(C)[C@H]1CCCC[C@@H]1N1CCCC1
- TGI (OVCAR-3 ovarian): 16.3 µM
- TGI (BT-549 breast): 26.8 µM
- TGI (ACHN renal): 14.6 µM
- TGI (SK-MEL-2 melanoma): 22 µM
- TGI (SN12C renal): 25.1 µM
- TGI (OVCAR-4 ovarian): > 41.6 µM
- TGI (A498 renal): 28.9 µM
- TGI (HL-60(TB) leukemia): 5.33 µM
- TGI (SNB-75 CNS): 26.8 µM
- TGI (M14 melanoma): 32.3 µM
- TGI (K-562 leukemia): > 33.5 µM
- TGI (HCT-15 colon): 28 µM
- TGI (NCI-H23 lung): 30.4 µM
- TGI (HS 578T breast): 36 µM
- TGI (CCRF-CEM leukemia): > 100 µM
- TGI (MDA-N): 25.2 µM
- TGI (SF-268 CNS): 35.5 µM
- TGI (SK-OV-3 ovarian): 37.8 µM
- TGI (HCC-2998 colon): 21.2 µM
- TGI (A549 NSCLC): > 54.2 µM
- TGI (NCI-H522 lung): 7.89 µM
- TGI (DU-145 prostate): 19.9 µM
- TGI (HCT-116 colon): 23.3 µM
- TGI (MALME-3M melanoma): 20.5 µM
- TGI (COLO 205 colon): 7.21 µM
- TGI (MOLT-4 leukemia): 13.8 µM
- TGI (RPMI-8226 leukemia): 19.2 µM
- TGI (MDA-MB-231 breast): 28.9 µM
- TGI (EKVX NSCLC): 29.2 µM
- TGI (TK-10 renal): 11.1 µM
- TGI (CAKI-1 renal): 38.2 µM
- TGI (OVCAR-5 ovarian): 32 µM
- TGI (SK-MEL-28 melanoma): 33.7 µM
- TGI (RXF 393 renal): 17.7 µM
- TGI (786-0 renal): 22.1 µM
- TGI (LOX IMVI melanoma): 24.4 µM
- TGI (MDA-MB-435): > 39.3 µM
- TGI (UO-31 renal): 21.3 µM
- TGI (SNB-19 CNS): 37.7 µM
- TGI (PC-3 prostate): 17.9 µM
- TGI (KM12 colon): > 56 µM
- TGI (SF-539 CNS): 13.3 µM
- TGI (IGROV1 ovarian): 22 µM
- TGI (NCI-H460 lung): 31.9 µM
- TGI (HOP-92 NSCLC): 18.7 µM
- TGI (UACC-62 melanoma): 28.4 µM
- TGI (T-47D breast): 28.5 µM
- TGI (MCF7 breast): 13.6 µM
- TGI (OVCAR-8 ovarian): 16.3 µM
- TGI (UACC-257 melanoma): 13 µM
- TGI (NCI-H226 lung): 31.7 µM
- TGI (NCI/ADR-RES ovarian): 35.1 µM
- TGI (SW-620 colon): 26.7 µM
- TGI (U251 CNS): 31.6 µM
- TGI (SF-295 CNS): 36.2 µM
- TGI (SR leukemia): > 28.3 µM
- TGI (HOP-62 NSCLC): 33.3 µM
- TGI (HT29 colon): 41 µM
- TGI (SK-MEL-5 melanoma): 22.9 µM

Reference: PubChem BioAssay (NCI)
